Experimental data taken from patent publication US12139492B2 (Endotarget Inc., priority 2021, dated 2024).
pIC50: −log10 of the molar value. Read-outs that look alike come from different tables or passages of the source.

What was measured:
JeKo-1 cells = assay: Antiproliferative effect, MTS cell viability assay, JeKo-1 cells; format: cell-based; details: Homo sapiens; JeKo-1 mantle cell lymphoma cells; read-out: IC50 (anti-proliferation) JeKO-1 cells
In short: (§1)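 Tested at six concentrations (0 to 10 μM in tenfold steps), 72 h; viability by MTS, A490.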

BTK = BTK (Homo sapiens, UniProt Q06187); assay: Degradation of BTK protein in Namalwa cells (Western blot; DC50, Dmax); details: for DC50: cell line not given
Mino cells = assay: Antiproliferative effect, MTS cell viability assay, Mino cells; format: cell-based; details: Homo sapiens, MINO, Mino mantle cell lymphoma cells; read-out: IC50 (anti-proliferation) Mino cells
In short: as §1

[1] = read-out: DC50 (BTK degradation), concentration giving 50% reduction of BTK expression level
[2] = read-out: Dmax (BTK degradation)

BTK, sequence (Q06187 whole entry): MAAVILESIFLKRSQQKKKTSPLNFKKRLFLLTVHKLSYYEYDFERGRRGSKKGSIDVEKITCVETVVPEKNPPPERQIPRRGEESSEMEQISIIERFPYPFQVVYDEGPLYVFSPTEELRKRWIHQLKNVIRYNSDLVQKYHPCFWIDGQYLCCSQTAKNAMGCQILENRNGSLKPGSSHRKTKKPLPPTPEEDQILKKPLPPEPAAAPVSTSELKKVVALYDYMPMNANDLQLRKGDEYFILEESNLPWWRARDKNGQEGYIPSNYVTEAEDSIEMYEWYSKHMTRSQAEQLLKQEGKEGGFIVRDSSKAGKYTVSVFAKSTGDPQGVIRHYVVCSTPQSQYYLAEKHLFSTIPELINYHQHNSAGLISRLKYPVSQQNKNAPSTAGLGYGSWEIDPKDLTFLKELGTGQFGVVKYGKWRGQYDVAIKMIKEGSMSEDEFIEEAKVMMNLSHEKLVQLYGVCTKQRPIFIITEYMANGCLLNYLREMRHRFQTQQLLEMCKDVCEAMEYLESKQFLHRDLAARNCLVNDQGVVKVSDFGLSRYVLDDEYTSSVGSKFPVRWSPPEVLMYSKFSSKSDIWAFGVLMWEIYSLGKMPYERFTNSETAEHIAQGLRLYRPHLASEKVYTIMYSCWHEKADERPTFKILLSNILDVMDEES

| Structure (SMILES) | pIC50 (JeKo-1 cells) | DC50 (BTK; [1]) [µM] | Dmax (BTK; [2]) [%] | pIC50 (Mino cells) | Dmax (BTK) [%] | DC50 (BTK; BTK degradation) [µM] | degradation of BTK protein (BTK; Namalwa B lymphocyte cells, various concentrations, 24 hours, Western blot) |
| --- | --- | --- | --- | --- | --- | --- | --- |
| Nc1ncnc2c1c(-c1ccc(Oc3ccccc3)cc1)nn2C1CCN(CC2CCN(CC3CCN(c4ccc5c(c4)oc(=O)n5C4CCC(=O)NC4=O)CC3)C2)CC1 (centres unmarked) [Compound 541, 3-(6-(4-((3-((4-(4-amino-3-(4-phenoxyphenyl)-1H-pyrazolo[3,4-d]pyrimidin-1-yl)piperidin-1-yl)methyl)pyrrolidin-1-yl)methyl)piperidin-1-yl)-2-oxobenzo[d]oxazol-3(2H)-yl)piperidine-2,6-dione] | 5.00 to 6.00 | 0.01 to 0.05 | > 75 | 5.00 to 6.00 |  |  |  |
| Nc1ncnc2c1c(-c1ccc(Oc3ccccc3)cc1)nn2C1CCN(C(=O)C2CC(N3CCN(c4ccc5c(c4)CN(C4CCC(=O)NC4=O)C5=O)CC3)C2)CC1 (centres unmarked) [Compound 508, 3-(5-(4-(3-(4-(4-amino-3-(4-phenoxyphenyl)-1H-pyrazolo[3,4-d]pyrimidin-1-yl)piperidine-1-carbonyl)cyclobutyl)piperazin-1-yl)-1-oxoisoindolin-2-yl)piperidine-2,6-dione] | > 6.00 | < 0.01 | > 90 | > 6.00 |  |  |  |
| Nc1ncnc2c1c(-c1ccc(Oc3ccccc3)cc1)nn2[C@@H]1CCCN(CCNC(=O)NC2CCC(=O)NC2=O)C1 (stereo partly drawn) [Compound 519, 1-(2-((R)-3-(4-amino-3-(4-phenoxyphenyl)-1H-pyrazolo[3,4-d]pyrimidin-1-yl)piperidin-1-yl)ethyl)-3-(2,6-dioxopiperidin-3-yl)urea] | 5.00 to 6.00 | 0.01 to 0.05 | > 75 | < 5.00 |  |  |  |
| Nc1ncnc2c1c(-c1ccc(Oc3ccccc3)cc1)nn2C1CCN(C2CCN(C(=O)N3CCC(CCN4CCC(c5ccc6c(c5)CN(C5CCC(=O)NC5=O)C6=O)CC4)CC3)CC2)CC1 (centres unmarked) [Compound 254, 3-(5-(1-(2-(1-(4-(4-amino-3-(4-phenoxyphenyl)-1H-pyrazolo[3,4-d]pyrimidin-1-yl)-[1,4′-bipiperidine]-1′-carbonyl)piperidin-4-yl)ethyl)piperidin-4-yl)-1-oxoisoindolin-2-yl)piperidine-2,6-dione] | 5.00 to 6.00 |  |  | 5.00 to 6.00 | > 90 | < 0.01 |  |
| Nc1ncnc2c1c(-c1ccc(Oc3ccccc3)cc1)nn2C1CCN(CCCN2CCC(CN3CCN(c4ccc(N5CCC(=O)NC5=O)cc4)CC3)CC2)CC1 [Compound 556, 1-(4-(4-((1-(3-(4-(4-amino-3-(4-phenoxyphenyl)-1H-pyrazolo[3,4-d]pyrimidin-1-yl)piperidin-1-yl)propyl)piperidin-4-yl)methyl)piperazin-1-yl)phenyl)dihydropyrimidine-2,4(1H,3H)-dione] | > 6.00 | < 0.01 | > 90 | > 6.00 |  |  |  |
| NC(=O)c1c(-c2ccc(Oc3ccccc3)cc2)nn2c1NCC[C@H]2C1CCN(C2CCN(C(=O)N3CCC(C4CCN(c5ccc6c(c5)C(=O)N(C5CCC(=O)NC5=O)C6=O)CC4)CC3)CC2)CC1 (stereo partly drawn) [Compound 383, (7S)-7-(1′-(1′-(2-(2,6-dioxopiperidin-3-yl)-1,3-dioxoisoindolin-5-yl)-[4,4′-bipiperidine]-1-carbonyl)-[1,4′-bipiperidin]-4-yl)-2-(4-phenoxyphenyl)-4,5,6,7-tetrahydropyrazolo[1,5-a]pyrimidine-3-carboxamide] | > 6.00 |  |  | > 6.00 | > 90 | 0.01 to 0.05 |  |
| Nc1ncnc2c1c(-c1ccc(Oc3ccccc3)cc1)nn2C1CCN(C2CCN(CC3CCN(CC4CN(c5ccc6c(c5)C(=O)N(C5CCC(=O)NC5=O)C6=O)C4)CC3)CC2)CC1 (centres unmarked) [Compound 435, 5-(3-((4-((4-(4-amino-3-(4-phenoxyphenyl)-1H-pyrazolo[3,4-d]pyrimidin-1-yl)-[1,4′-bipiperidin]-1′-yl)methyl)piperidin-1-yl)methyl)azetidin-1-yl)-2-(2,6-dioxopiperidin-3-yl)isoindoline-1,3-dione] | 5.00 to 6.00 | < 0.01 | > 90 | > 6.00 |  |  | dose-dependent degradation |
